Test results: ChEMBL document CHEMBL5154723 (Bioorg Med Chem, 2022)

test: Inhibition of Influenza A virus H5N1 neuraminidase

Question: Which IC50 does the source give for `COc1cccc(CCNC(=O)CSc2nnc(-c3ccc(O)cc3)o2)c1` here?
Answer: The IC50 was 360 nM.

Question: For `COc1cccc(CCNC(=O)CSc2nnc(-c3ccc(C)cc3)o2)c1`, which IC50 is on record?
Answer: Its IC50 is 150000 nM.

Question: For `COc1cccc(CCNC(=O)CSc2nnc(-c3ccc(F)cc3)o2)c1`, which IC50 is on record?
Answer: The IC50 was 56700 nM.

Question: With `COc1cccc(CCNC(=O)CSc2nnc(-c3ccccc3)o2)c1` as the compound, how does the IC50 read?
Answer: The IC50 was 260 nM.

Question: For `O=C(CSc1nnc(-c2ccc(Cl)cc2)o1)NCc1ccc(Cl)c(Cl)c1`, which IC50 is on record?
Answer: The IC50 was 32 nM.

Question: For `CCC(CC)O[C@@H]1C=C(C(=O)O)C[C@H](N)[C@H]1NC(C)=O` [OSELTAMIVIR CARBOXYLATE], which IC50 is on record?
Answer: The IC50 was 82 nM.

Question: For `Cc1ccc(-c2nnc(SCC(=O)NCc3ccc(Cl)c(Cl)c3)o2)cc1`, which IC50 is on record?
Answer: Its IC50 is 2050 nM.

Question: Which IC50 does the source give for `O=C(CSc1nnc(-c2ccc(F)cc2)o1)NCc1ccc(Cl)c(Cl)c1` here?
Answer: The IC50 was 450 nM.

Question: For `O=C(CSc1nnc(-c2ccccc2)o1)NCCc1cccc(F)c1`, which IC50 is on record?
Answer: The IC50 was 3580 nM.

Question: With `O=C(CSc1nnc(-c2ccccc2)o1)NCc1ccc(Cl)c(Cl)c1` as the compound, how does the IC50 read?
Answer: Its IC50 is 130 nM.

Question: Which IC50 does the source give for `COc1ccc(-c2nnc(SCC(=O)NCc3ccc(Cl)c(Cl)c3)o2)cc1` here?
Answer: The IC50 was 3950 nM.

Question: Which IC50 does the source give for `O=C(CSc1nnc(-c2ccc(O)cc2)o1)NCc1ccc(Cl)c(Cl)c1` here?
Answer: Its IC50 is 1180 nM.

Question: For `O=C(CSc1nnc(-c2ccc(O)cc2)o1)NCCc1cccc(F)c1`, which IC50 is on record?
Answer: The IC50 was 27 nM.

Question: Which IC50 does the source give for `Cc1cc([N+](=O)[O-])ccc1NC(=O)CSc1nnc(COc2ccc3ccccc3c2)o1` here?
Answer: The IC50 was 6150 nM.
